Values quoted from earlier work as cited in patent EP0081783B2, “Renin inhibitory peptides having Phe 13 deletion” (Merck & Co., Inc., priority 1981, dated 1989).

Tested on: hog renin
Details: after the injection of hog renin into nephrectomized rats

pepstatin
blood pressure in vivo: reduce blood pressure
